Where “and” joins values, the source holds several entries; their conditions need not be identical. Equal entries are not always repeated.
Assays:
Assay in all cases: MIC, NCCLS broth microdilution
Format in all cases: cell-based
Details in all cases: for MIC of antibiotic: antibiotic alone, no inhibitor
[1] = tested on: Serratia marcescens S6
[2] = tested on: Klebsiella pneumoniae CF104
[3] = tested on: Enterobacter cloacae P99
[4] = tested on: Stenotrophomonas malthophilia 1AC736
[5] = tested on: Acinetobacter sp. J2
[6] = tested on: Pseudomonas aeruginosa MK1184
[7] = tested on: Pseudomonas aeruginosa 1973E
Protocol: Antimicrobial activity of the compounds and of their combinations was determined against a selection of organisms according to the standard procedures described by the National Committee for Clinical Laboratory Standards (National Committee for Clinical Laboratory. Standards (2000). Methods for Dilution Antimicrobial Susceptibility Tests for Bacteria That Grow Aerobically-Fifth Edition: Approved Standard M7-A5. NCCLS, Wayne, Pa., USA).
In all cases the final concentration of DMSO incubated with the bacteria is less than or equal to 1%. […] Plates were incubated overnight at an appropriate temperature (30° C. or 37° C.) and optical densities assessed by eye. The MIC value is defined as the lowest compound concentration completely inhibiting visible growth of the test organism. When combinations between compounds of formula I with compounds of formula II and are evaluated the compounds of formula I are tested in dilution series as described above while the compounds of formula II and III-XIII were present in all wells at a constant concentration of 4 μg/mL each.

[8] = with clavulanate (clavulanic acid)
[9] = Stenotrophomonas maltophilia 1AC736

CC1(C)S[C@@H]2[C@H](NC(=O)[C@H](N)c3ccc(O)cc3)C(=O)N2[C@H]1C(=O)O [Amoxicillin, amoxicillin, reference compound]
MIC of antibiotic at fixed inhibitor concentration of 4 mg/L [1, 8]: >32 µg/mL
MIC of antibiotic at fixed inhibitor concentration of 4 mg/L [2, 8]: 32 µg/mL
MIC of antibiotic at fixed inhibitor concentration of 4 mg/L [3, 8]: >32 µg/mL
MIC of antibiotic at fixed inhibitor concentration of 4 mg/L ([4]; Stenotrophomonas maltophilia 1AC736, with clavulanate (clavulanic acid)): >32 µg/mL
MIC of antibiotic at fixed inhibitor concentration of 4 mg/L ([5]; Acinetobacter baumannii J2, with clavulanate (clavulanic acid)): >32 µg/mL
MIC of antibiotic at fixed inhibitor concentration of 4 mg/L [6, 8]: >32 µg/mL
MIC of antibiotic at fixed inhibitor concentration of 4 mg/L [7, 8]: >32 µg/mL

CC1(C)S[C@@H]2[C@H](NC(=O)[C@H](N)c3ccccc3)C(=O)N2[C@H]1C(=O)O [Ampicillin, ampicillin, reference compound]
MIC of antibiotic at fixed inhibitor concentration of 4 mg/L ([1]; with sulbactam): >32 µg/mL
MIC of antibiotic at fixed inhibitor concentration of 4 mg/L ([2]; with sulbactam): >32 µg/mL
MIC of antibiotic at fixed inhibitor concentration of 4 mg/L ([3]; with sulbactam): >32 µg/mL
MIC of antibiotic at fixed inhibitor concentration of 4 mg/L ([4]; Stenotrophomonas maltophilia 1AC736, with sulbactam): 32 µg/mL
MIC of antibiotic at fixed inhibitor concentration of 4 mg/L ([5]; Acinetobacter baumannii J2, with sulbactam): 32 µg/mL
MIC of antibiotic at fixed inhibitor concentration of 4 mg/L ([6]; with sulbactam): >32 µg/mL
MIC of antibiotic at fixed inhibitor concentration of 4 mg/L ([7]; with sulbactam): >32 µg/mL

CO/N=C(\C(=O)N[C@@H]1C(=O)N2C(C(=O)[O-])=C(C[N+]3(C)CCCC3)CS[C@H]12)c1csc(N)n1 [Cefepime]
MIC of antibiotic [1]: 0.13 µg/mL and 0.125 µg/mL
MIC of antibiotic [2]: 4 µg/mL
MIC of antibiotic [3]: 2 µg/mL
MIC of antibiotic ([4]; Stenotrophomonas malthophilia 1AC736): 4 µg/mL
MIC of antibiotic [4, 9]: 4 µg/mL
MIC of antibiotic ([5]; Acinetobacter baumannii J2): 32 µg/mL
MIC of antibiotic ([5]; Acinetobacter sp. J2): 32 µg/mL
MIC of antibiotic [6]: 32 µg/mL
MIC of antibiotic [7]: 4 µg/mL

CC1C(NC(=O)C(=NOCc2cc(=O)c(O)cn2O)c2nsc(N)n2)C(=O)N1S(=O)(=O)O (stereo not shown) [Compound 2]
MIC of antibiotic [1]: >32 µg/mL
MIC of antibiotic at fixed inhibitor concentration of 4 mg/L ([1]; with 206 and clavulanate): >32 µg/mL
MIC of antibiotic [2]: >32 µg/mL
MIC of antibiotic at fixed inhibitor concentration of 4 mg/L ([2]; with 206 and clavulanate): 8 µg/mL
MIC of antibiotic [3]: >32 µg/mL
MIC of antibiotic at fixed inhibitor concentration of 4 mg/L ([3]; with 206 and clavulanate): 16 µg/mL
MIC of antibiotic [4, 9]: 4 µg/mL
MIC of antibiotic at fixed inhibitor concentration of 4 mg/L ([4]; Stenotrophomonas maltophilia 1AC736, with 206 and clavulanate): 0.5 µg/mL
MIC of antibiotic ([5]; Acinetobacter baumannii J2): 4 µg/mL
MIC of antibiotic at fixed inhibitor concentration of 4 mg/L ([5]; Acinetobacter baumannii J2, with 206 and clavulanate): 16 µg/mL
MIC of antibiotic [6]: 8 µg/mL
MIC of antibiotic at fixed inhibitor concentration of 4 mg/L ([6]; with 206 and clavulanate): 16 µg/mL
MIC of antibiotic [7]: 8 µg/mL
MIC of antibiotic at fixed inhibitor concentration of 4 mg/L ([7]; with 206 and clavulanate): 8 µg/mL

From patent US20160122320A1, “USEFUL COMBINATIONS OF MONOBACTAM ANTIBIOTICS WITH BETA-LACTAMASE INHIBITORS” (Basilea Pharmaceutica AG, priority 2005, published 2016)
